Active and inactive are the calls of the source. The rule behind the calls is not given here.
Assays:
[1] = Binding affinity to synthetic d(5'-GCGAGTACTCGC-3') DNA sequence assessed as change in heat by ITC assay
[2] = Binding affinity to synthetic d(5'-GCGACTAGTCGC-3') DNA sequence assessed as change in heat by ITC assay
[3] = Binding affinity to synthetic d(CGACTAGTCG)2 DNA sequence by NMR analysis

Compound | Activity [1] | Activity [2] | Activity [3]
CC(C)c1sc(NC(=O)CCCN(C)C)nc1C(=O)Nc1cc(C(=O)Nc2cc(C(N)=O)n(C)c2)n(C)c1 | inactive | inactive | –
CC(C)c1sc(NC(=O)c2cc(NC(=O)c3cc(NC=O)cn3C)cn2C)nc1C(=O)NCCCN(C)C | – | – | Active

Source: ChEMBL document CHEMBL4414633, “Investigation of the Factors That Dictate the Preferred Orientation of Lexitropsins in the Minor Groove of DNA” (J Med Chem, 2019)
